We go through 38 molecules from the supplement of paper PMC12137928.

For the assay, the system named is HCT116. To be noted: 72 h. The method, boiled down:
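IC50 and maximal efficacy were derived from four-parameter Hill curve fits. The underlying CellTiter-Glo luminescence was scaled so that vehicle equals 0% and positive control equals -100%, and was then pattern-corrected. HCT116 cells had been seeded in 1536-well plates at 250 per well.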

Where a name gives a salt, the structure may show the parent alone.

In the case of `CCN1CCCC(OC(=O)C(c2ccccc2)c2ccccc2)C1` (stereo unspecified) [Piperidolate hydrochloride], the IC50 cell viability by setting is: (ICRF193 0 nM) over 45.8 µM; (ICRF193 200 nM) over 45.8 µM.
With `COc1cccc(OC)c1C(=O)N[C@@H]1C(=O)N2[C@@H]1SC(C)(C)[C@@H]2C(=O)O` [Methicillin sodium hydrate], the IC50 cell viability was over 45.8 µM (ICRF193 0 nM) and over 45.8 µM (ICRF193 200 nM).
On to `C[C@@H](N)C(=O)O` [D-Alanine], for which the IC50 cell viability runs as follows: (ICRF193 0 nM) over 45.8 µM; (ICRF193 200 nM) over 45.8 µM.
In turn, `O=C(O[C@@H]1C[C@@H]2C[C@H]3C[C@H](C1)N2CC3=O)c1c[nH]c2ccccc12` [Dolasetron mesylate hydrate] yielded an IC50 cell viability (ICRF193 0 nM) of over 45.8 µM and an IC50 cell viability (ICRF193 200 nM) of over 45.8 µM.
Consider `Cc1cn([C@H]2C[C@H](N=[N+]=[N-])[C@@H](CO)O2)c(=O)[nH]c1=O` [3'-Azido-3'-deoxythymidine], for which the IC50 cell viability is over 45.8 µM (ICRF193 0 nM) and over 45.8 µM (ICRF193 200 nM).
As to `O=C(CC1NCCCC1O)Cn1cnc2cc(Br)c(Cl)cc2c1=O` (stereo unspecified) [Halofuginone hydrochloride], the IC50 cell viability is, setting by setting: (ICRF193 0 nM) over 45.8 µM; (ICRF193 200 nM) over 45.8 µM.
For `O=C(CCc1ccc(O)cc1)c1c(O)cc(O)cc1O[C@@H]1O[C@H](CO)[C@@H](O)[C@H](O)[C@H]1O` [Phlorizin], the IC50 cell viability was over 45.8 µM (ICRF193 0 nM) and over 45.8 µM (ICRF193 200 nM).
Regarding `CCOC(=O)c1ccc(OC(=O)CCCCCNC(=N)N)cc1` [Gabexate mesilate], the IC50 cell viability reads like this: (ICRF193 0 nM) over 45.8 µM; (ICRF193 200 nM) over 45.8 µM.
On to `Cc1oc(=O)oc1COC(=O)[C@@H]1N2C(=O)[C@@H](NC(=O)[C@H](N)c3ccccc3)[C@H]2SC1(C)C` [Lenampicillin hydrochloride], for which the IC50 cell viability is over 45.8 µM (ICRF193 0 nM) and over 45.8 µM (ICRF193 200 nM).
`O=C(O)C(Cl)(Cl)Cl` [Trichloroacetic acid] came in with an IC50 cell viability (ICRF193 0 nM) of over 45.8 µM and an IC50 cell viability (ICRF193 200 nM) of over 45.8 µM.
Take `N#Cc1ccc2[nH]cc(CCCCN3CCN(c4ccc5oc(C(N)=O)cc5c4)CC3)c2c1` [Vilazodone Hydrochloride]: the IC50 cell viability by setting is: (ICRF193 0 nM) over 45.8 µM; (ICRF193 200 nM) over 45.8 µM.
For the molecule `Nc1nc(=O)c(Br)c(-c2ccccc2)[nH]1` [Bropirimine], the IC50 cell viability runs as follows: (ICRF193 0 nM) over 45.8 µM; (ICRF193 200 nM) over 45.8 µM.
`O=C(O)c1cc(=O)c2c(OCC(O)COc3cccc4oc(C(=O)O)cc(=O)c34)cccc2o1` [Sodium cromoglycate]: the IC50 cell viability is, setting by setting: (ICRF193 0 nM) over 45.8 µM; (ICRF193 200 nM) over 45.8 µM.
As for `Nc1cccc2c1CN(C1CCC(=O)NC1=O)C2=O` (stereo unspecified) [Lenalidomide], the IC50 cell viability by setting is: (ICRF193 0 nM) over 45.8 µM; (ICRF193 200 nM) over 45.8 µM.
On to `COc1ccc(/C=C/C(=O)Nc2ccccc2C(=O)O)cc1OC` [Tranilast], for which the IC50 cell viability is over 45.8 µM (ICRF193 0 nM) and over 45.8 µM (ICRF193 200 nM).
With `O=C1CCC(=O)N1CO` [N-Hydroxymethylsuccinimide], the IC50 cell viability (ICRF193 0 nM) was over 45.8 µM and the IC50 cell viability (ICRF193 200 nM) is over 45.8 µM.
As to `CC(C)[C@H]1CC[C@H](C)C[C@@H]1O` [(1S,2R,5S)-(+)-Menthol], the IC50 cell viability by setting is: (ICRF193 0 nM) over 45.8 µM; (ICRF193 200 nM) over 45.8 µM.
For `CCC(=O)O[C@H]1CC[C@H]2[C@@H]3CCC4=CC(=O)CC[C@]4(C)[C@H]3CC[C@]12C` [Testosterone propionate], the IC50 cell viability reads like this: (ICRF193 0 nM) over 45.8 µM; (ICRF193 200 nM) over 45.8 µM.
Turning to `O=C(O)c1cccnc1` [Niacin], the IC50 cell viability by setting is: (ICRF193 0 nM) over 45.8 µM; (ICRF193 200 nM) over 45.8 µM.
In the case of `C[C@]12CC[C@H](OS(=O)(=O)O)CC1=CC[C@@H]1[C@@H]2CC[C@]2(C)C(=O)CC[C@@H]12` [Dehydroepiandrosterone Sulfate (sodium salt)], the IC50 cell viability is, setting by setting: (ICRF193 0 nM) over 45.8 µM; (ICRF193 200 nM) over 45.8 µM.
For the molecule `CCCCCCCCCCCCCCCCCCOCC(O)CO` (stereo unspecified) [3-(Octadecyloxy)-1,2-propanediol], the IC50 cell viability was over 45.8 µM (ICRF193 0 nM) and over 45.8 µM (ICRF193 200 nM).
Take `NC[C@H]1CC[C@H](C(=O)Oc2ccc(CCC(=O)O)cc2)CC1` [Cetraxate hydrochloride]: the IC50 cell viability was over 45.8 µM (ICRF193 0 nM) and over 45.8 µM (ICRF193 200 nM).
`Cc1cccc(N(C)C(=S)Oc2ccc3c(c2)CCC3)c1` [Tolindate]: the IC50 cell viability reads like this: (ICRF193 0 nM) over 45.8 µM; (ICRF193 200 nM) over 45.8 µM.
Turning to `CC(C)C[C@H]1C(=O)O[C@H](Cc2ccc(N3CCOCC3)cc2)C(=O)N(C)[C@@H](CC(C)C)C(=O)O[C@H](C)C(=O)N(C)[C@@H](CC(C)C)C(=O)O[C@H](Cc2ccc(N3CCOCC3)cc2)C(=O)N(C)[C@@H](CC(C)C)C(=O)O[C@H](C)C(=O)N1C` [Emodepside], the IC50 cell viability is over 45.8 µM (ICRF193 0 nM) and over 45.8 µM (ICRF193 200 nM).
Turning to `O=C/C=C/c1ccccc1` [(2E)-3-Phenylprop-2-enal], the IC50 cell viability by setting is: (ICRF193 0 nM) over 45.8 µM; (ICRF193 200 nM) over 45.8 µM.
As for `C/C(=C(\CCO)SS/C(CCO)=C(/C)N(C=O)Cc1cnc(C)nc1N)N(C=O)Cc1cnc(C)nc1N` [Thiamine disulfide], the IC50 cell viability is, setting by setting: (ICRF193 0 nM) over 45.8 µM; (ICRF193 200 nM) over 45.8 µM.
In the case of `COc1ccc(OC)c(C(O)C(C)N)c1` (stereo unspecified) [Methoxamine hydrochloride], the IC50 cell viability by setting is: (ICRF193 0 nM) over 45.8 µM; (ICRF193 200 nM) over 45.8 µM.
In turn, `C=C[C@]1(C)C[C@@H](OC(=O)CS[C@@H]2C[C@H]3CC[C@@H](C2)N3C)[C@]2(C)[C@H](C)CC[C@]3(CCC(=O)[C@H]32)[C@@H](C)[C@@H]1O` [Retapamulin] returned an IC50 cell viability (ICRF193 0 nM) of over 45.8 µM and an IC50 cell viability (ICRF193 200 nM) of over 45.8 µM.
As for `O=C(COCCOCCOCC(=O)Nc1c(I)cc(I)c(C(=O)O)c1I)Nc1c(I)cc(I)c(C(=O)O)c1I` [Biliscopin], the IC50 cell viability reads like this: (ICRF193 0 nM) over 45.8 µM; (ICRF193 200 nM) over 45.8 µM.
Turning to `NC1=NCC2c3ccccc3Cc3ccccc3N12` (stereo unspecified) [Epinastine hydrochloride], the IC50 cell viability runs as follows: (ICRF193 0 nM) over 45.8 µM; (ICRF193 200 nM) over 45.8 µM.
As to `CC(CN(C)C)CN1c2ccccc2Sc2ccccc21` (stereo unspecified) [Trimeprazine tartrate], the IC50 cell viability by setting is: (ICRF193 0 nM) over 45.8 µM; (ICRF193 200 nM) over 45.8 µM.
With `CC[C@H]1OC(=O)[C@H](C)[C@@H](O[C@H]2C[C@@](C)(OC)[C@@H](O)[C@H](C)O2)[C@H](C)[C@@H](O[C@@H]2O[C@H](C)C[C@H](N(C)C)[C@H]2O)[C@](C)(O)C[C@@H](C)[C@@H]2N[C@@H](COCCOC)O[C@H]([C@H]2C)[C@]1(C)O` [Dirithromycin], the IC50 cell viability is, setting by setting: (ICRF193 0 nM) over 45.8 µM; (ICRF193 200 nM) over 45.8 µM.
`CCCCCCCCCC(=O)NO` [Sodium decanehydroxamate]: the IC50 cell viability (ICRF193 0 nM) was over 45.8 µM and the IC50 cell viability (ICRF193 200 nM) was over 45.8 µM.
`C[C@](N)(Cc1ccc(O)cc1)C(=O)O` [Metyrosine]: the IC50 cell viability by setting is: (ICRF193 0 nM) over 45.8 µM; (ICRF193 200 nM) over 45.8 µM.
Take `N=C(N)NCC1COC2(CCCCC2)O1` (stereo unspecified) [Guanadrel sulfate]: the IC50 cell viability by setting is: (ICRF193 0 nM) over 45.8 µM; (ICRF193 200 nM) over 45.8 µM.
With `COc1cccc(N(C)C(=S)Oc2ccc3c(c2)CCCC3)n1` [Liranaftate], the IC50 cell viability runs as follows: (ICRF193 0 nM) over 45.8 µM; (ICRF193 200 nM) over 45.8 µM.
In the case of `C[C@](N)(Cc1ccc(O)c(O)c1)C(=O)O` [Methyldopa], the IC50 cell viability by setting is: (ICRF193 0 nM) over 45.8 µM; (ICRF193 200 nM) over 45.8 µM.
Turning to `O=C(C1CCCCC1)N1CC(=O)N2CCc3ccccc3C2C1` (stereo unspecified) [Praziquantel], the IC50 cell viability was over 45.8 µM (ICRF193 0 nM) and over 45.8 µM (ICRF193 200 nM).
